Results as given in patent US12692254B2, “Benzimidazole inhibitors of PAD enzymes” (BRISTOL-MYERS SQUIBB COMPANY, priority 2018, dated 2026).

biological target: human PAD4 (hPAD4) (Homo sapiens, UniProt Q9UM07); assay: RFMS human PAD4 functional assay (rapid-fire mass spectrum); format: biochemical; settings: 5 nM hPAD4 enzyme, 250 μM BAEE, 50 μM Calcium; 30 min preincubation, 90 min reaction at 37° C.
Summary of the method: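 PAD4 (10 nM) preincubated 30 min with compound (top final 50 μM), then BAEE substrate added in pH 7.5 HEPES buffer with DTT, 50 μM calcium, TPEN; 90 min at 37° C. After TCA quench, citrulline derivatized with phenyl glyoxal (4 mM final, 30 min, 37° C) and quantified by RapidFire MS against internal standard.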

human PAD4 (hPAD4), sequence (Q9UM07 whole entry): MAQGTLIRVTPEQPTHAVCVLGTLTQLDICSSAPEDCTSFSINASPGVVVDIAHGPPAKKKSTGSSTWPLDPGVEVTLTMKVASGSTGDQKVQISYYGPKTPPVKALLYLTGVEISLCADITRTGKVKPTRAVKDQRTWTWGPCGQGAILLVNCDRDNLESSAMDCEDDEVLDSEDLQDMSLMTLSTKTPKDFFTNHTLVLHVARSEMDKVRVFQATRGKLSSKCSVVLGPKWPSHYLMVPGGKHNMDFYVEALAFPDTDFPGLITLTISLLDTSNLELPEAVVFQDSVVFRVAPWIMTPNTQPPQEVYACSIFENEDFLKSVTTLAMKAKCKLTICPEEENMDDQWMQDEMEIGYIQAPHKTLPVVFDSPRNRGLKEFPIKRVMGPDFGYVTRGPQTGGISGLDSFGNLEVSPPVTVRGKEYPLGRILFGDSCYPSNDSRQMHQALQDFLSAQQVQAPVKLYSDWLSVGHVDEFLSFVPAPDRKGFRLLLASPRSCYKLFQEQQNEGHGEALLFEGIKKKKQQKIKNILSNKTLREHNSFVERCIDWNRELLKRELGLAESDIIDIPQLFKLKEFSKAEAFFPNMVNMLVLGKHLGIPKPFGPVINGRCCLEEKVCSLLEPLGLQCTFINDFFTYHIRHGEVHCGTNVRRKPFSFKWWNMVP

Row | Compound | IC50 [nM]
1 | COc1cc(C(=O)N2C[C@H]3CC[C@@H]2[C@@H]3N)cc2nc(-c3cc4cccnc4n3CC3CC3)n(C3CCN(C(=O)c4ccnc(C#N)c4)CC3)c12 [Example 240, 4-(4-{5-[(1R,4R,7R)-7-amino-2-azabicyclo[2.2.1]heptane-2-carbonyl]-2-[1-(cyclopropylmethyl)-1H-pyrrolo[2,3-b]pyridin-2-yl]-7-methoxy-1H-1,3-benzodiazol-1-yl}piperidine-1-carbonyl)pyridine-2-carbonitrile] | 1440
2 | COc1cc(C(=O)N2C[C@H]3CC[C@@H]2[C@@H]3N)cc2nc(-c3cc4cccnc4n3CC3CC3)n(C3CCN(C(=O)c4ccnc(F)c4)CC3)c12 [Example 241, (1R,4R,7R)-2-{2-[1-(cyclopropylmethyl)-1H-pyrrolo[2,3-b]pyridin-2-yl]-1-[1-(2-fluoropyridine-4-carbonyl)piperidin-4-yl]-7-methoxy-1H-1,3-benzodiazole-5-carbonyl}-2-azabicyclo[2.2.1]heptan-7-amine] | 2540
3 | COc1cc(C(=O)N2C[C@H]3CC[C@@H]2[C@@H]3N)cc2nc(-c3cc4ccccc4n3CC3CC3)n(Cc3cnn(C)c3)c12 [Example 242, (1R,4R,7R)-2-{2-[1-(cyclopropylmethyl)-1H-indol-2-yl]-7-methoxy-1-[(1-methyl-1H-pyrazol-4-yl)methyl]-1H-1,3-benzodiazole-5-carbonyl}-2-azabicyclo[2.2.1]heptan-7-amine] | 41
4 | COc1cc(C(=O)N2C[C@H]3CC[C@@H]2[C@@H]3N)cc2nc(-c3cc4cccnc4n3CC3CC3)n(Cc3cnn(C)c3)c12 [Example 243, (1R,4R,7R)-2-{2-[1-(cyclopropylmethyl)-1H-pyrrolo[2,3-b]pyridin-2-yl]-7-methoxy-1-[(1-methyl-1H-pyrazol-4-yl)methyl]-1H-1,3-benzodiazole-5-carbonyl}-2-azabicyclo[2.2.1]heptan-7-amine] | 33
5 | COc1cc(C(=O)N2C[C@H]3CC[C@@H]2[C@@H]3N)cc2nc(-c3cc4ccccc4n3CC3CC3)n(Cc3ccc(N)nc3)c12 [Example 244, (1R,4R,7R)-2-{1-[(6-aminopyridin-3-yl)methyl]-2-[1-(cyclopropylmethyl)-1H-indol-2-yl]-7-methoxy-1H-1,3-benzodiazole-5-carbonyl}-2-azabicyclo[2.2.1]heptan-7-amine] | 11
6 | COc1cc(C(=O)N2C[C@H]3CC[C@@H]2[C@@H]3N)cc2nc(-c3cc4ccccc4n3CC3CC3)n(CCC3CCS(=O)(=O)CC3)c12 [Example 245, ((1R,4R,7R)-7-amino-2-azabicyclo[2.2.1]heptan-2-yl)(2-(1-(cyclopropylmethyl)-1H-indol-2-yl)-1-(2-(1,1-dioxidotetrahydro-2H-thiopyran-4-yl)ethyl)-7-methoxy-1H-benzo[d]imidazol-5-yl)methanone] | 20
7 | COc1cc(C(=O)N2C[C@H]3CC[C@@H]2[C@@H]3N)cc2nc(-c3cc4ccccc4n3CC3CC3)n(Cc3cccnc3)c12 [Example 246, (1R,4R,7R)-2-{2-[1-(cyclopropylmethyl)-1H-indol-2-yl]-7-methoxy-1-[(pyridin-3-yl)methyl]-1H-1,3-benzodiazole-5-carbonyl}-2-azabicyclo[2.2.1]heptan-7-amine] | 25
8 | COc1cc(C(=O)N2C[C@H]3CC[C@@H]2[C@@H]3N)cc2nc(-c3cc4ccccc4n3CC3CC3)n(Cc3cn[nH]c3)c12 [Example 247, (1-((1H-pyrazol-4-yl)methyl)-2-(1-(cyclopropylmethyl)-1H-indol-2-yl)-7-methoxy-1H-benzo[d]imidazol-5-yl)((1R,4R,7R)-7-amino-2-azabicyclo[2.2.1]heptan-2-yl)methanone] | 27
9 | COc1cc(C(=O)N2C[C@H](N)C[C@@H](F)C2)cc2nc(-c3cc4ccccc4n3CC3CC3)n(Cc3cccnc3)c12 [Example 248, ((3R,5R)-3-amino-5-fluoropiperidin-1-yl)(2-(1-(cyclopropylmethyl)-1H-indol-2-yl)-7-methoxy-1-(pyridin-3-ylmethyl)-1H-benzo[d]imidazol-5-yl)methanone] | 116
10 | COc1cc(C(=O)N2C[C@H](N)C[C@@H](F)C2)cc2nc(-c3cc4ccccc4n3CC3CC3)n(CCC3CCS(=O)(=O)CC3)c12 [Example 249, ((3R,5R)-3-amino-5-fluoropiperidin-1-yl)(2-(1-(cyclopropylmethyl)-1H-indol-2-yl)-1-(2-(1,1-dioxidotetrahydro-2H-thiopyran-4-yl)ethyl)-7-methoxy-1H-benzo[d]imidazol-5-yl)methanone] | 35
11 | COc1cc(C(=O)N2C[C@H](N)C[C@@H](F)C2)cc2nc(-c3cc4cccnc4n3CC3CC3)n(Cc3cnn(C)c3)c12 [Example 250, ((3R,5R)-3-amino-5-fluoropiperidin-1-yl)(2-(1-(cyclopropylmethyl)-1H-pyrrolo[2,3-b]pyridin-2-yl)-7-methoxy-1-((1-methyl-1H-pyrazol-4-yl)methyl)-1H-benzo[d]imidazol-5-yl)methanone] | 89
12 | COc1cc(C(=O)N2C[C@H](N)CC[C@@H]2C)cc2nc(-c3cc4ccccc4n3CC3CC3)n(Cc3cnn(C)c3)c12 [Example 251, ((2S,5R)-5-amino-2-methylpiperidin-1-yl)(2-(1-(cyclopropylmethyl)-1H-indol-2-yl)-7-methoxy-1-((1-methyl-1H-pyrazol-4-yl)methyl)-1H-benzo[d]imidazol-5-yl)methanone] | 48
13 | COc1cc(C(=O)N2C[C@H]3CC[C@@H]2[C@@H]3N)cc2nc(-c3cc4ccccc4n3CC3CC3)n(Cc3cc(C)nn3C)c12 [Example 252, (1R,4R,7R)-2-{2-[1-(cyclopropylmethyl)-1H-indol-2-yl]-1-[(1,3-dimethyl-1H-pyrazol-5-yl)methyl]-7-methoxy-1H-1,3-benzodiazole-5-carbonyl}-2-azabicyclo[2.2.1]heptan-7-amine] | 22
14 | COc1cc(C(=O)N2C[C@H]3CC[C@@H]2[C@@H]3N)cc2nc(-c3cc4ccccc4n3CC3CC3)n(Cc3cnn(-c4ccccc4)c3)c12 [Example 253, (1R,4R,7R)-2-{2-[1-(cyclopropylmethyl)-1H-indol-2-yl]-7-methoxy-1-[(1-phenyl-1H-pyrazol-4-yl)methyl]-1H-1,3-benzodiazole-5-carbonyl}-2-azabicyclo[2.2.1]heptan-7-amine] | 27
15 | COc1cc(C(=O)N2C[C@H]3CC[C@@H]2[C@@H]3N)cc2nc(-c3cc4ccccc4n3CC3CC3)n(CCCN3CCCC3=O)c12 [Example 254, 1-(3-{5-[(1R,4R,7R)-7-amino-2-azabicyclo[2.2.1]heptane-2-carbonyl]-2-[1-(cyclopropylmethyl)-1H-indol-2-yl]-7-methoxy-1H-1,3-benzodiazol-1-yl}propyl)pyrrolidin-2-one] | 31
16 | COc1cc(C(=O)N2C[C@H](N)C[C@@H](F)C2)cc2nc(-c3cc4ccccc4n3CC3CC3)n(Cc3cccs3)c12 [Example 255, (3R,5R)-1-{2-[1-(cyclopropylmethyl)-1H-indol-2-yl]-7-methoxy-1-[(thiophen-2-yl)methyl]-1H-1,3-benzodiazole-5-carbonyl}-5-fluoropiperidin-3-amine] | 37
17 | COc1cc(C(=O)N2C[C@H]3CC[C@@H]2[C@@H]3N)cc2nc(-c3cc4ccccc4n3CC3CC3)n(Cc3cccs3)c12 [Example 256, (1R,4R,7R)-2-{2-[1-(cyclopropylmethyl)-1H-indol-2-yl]-7-methoxy-1-[(thiophen-2-yl)methyl]-1H-1,3-benzodiazole-5-carbonyl}-2-azabicyclo[2.2.1]heptan-7-amine] | 41
